From article PMC9436958, “The synthesis of novel thioderivative chalcones and their influence on NF-κB, STAT3 and NRF2 signaling pathways in colorectal cancer cells” (Scientific Reports, 2022)

What was measured:
Format in all cases: cell-based
p-Akt = test: Western blot, p-Akt (Ser 473) protein in cytosolic fraction; settings: 2, 5 at 5 μM, 4 at 1 μM
Procedure: (§1) Cytosolic and nuclear extracts were prepared using a Nuclear/Cytosol Fractionation Kit (BioVision Research, USA). Cytosolic extracts (for NF-κBp65, NF-κBp50, COX-2, iNOS, STAT3, c-Myc, Bcl-xl, Nrf2, SOD, GSTP, EGFR, Akt, p-Akt, Keap1, IKKα/β and β-actin) or nuclear extracts (for NF-κBp65, NF-κBp50, STAT3, p-STAT3, Nrf2, p-Nrf2 and lamin) were separated on 7.5%, 10% or 12% SDS–PAGE slab gels. Then, the proteins were transferred to a nitrocellulose Immobilon-P membrane. After blocking for 2 h with 10% skimmed milk, proteins were incubated with primary antibodies against NF-κBp65, NF-κBp50, COX-2, iNOS, STAT3, p-STAT3, c-Myc, Bcl-xl, Nrf2, p-Nrf2, SOD, GSTP, EGFR, Akt, p-Akt, Keap1, IKKα/β, β-actin, and lamin. Alkaline phosphatase (AP)-labeled anti-rabbit IgG, anti-goat IgG, and anti-mouse IgG secondary antibodies (Bio-Rad Laboratories, USA), as well as horseradish peroxidase (HRP)-conjugated anti-mouse IgG (Boster Bio, USA) secondary antibodies were used in the staining reaction. Bands were visualized by the AP Conjugate Substrate Kit NBT/BCIP or the chemiluminescent HRP substrate of the Clarity ECL Kit (Bio–Rad Laboratories, USA). The amount of immunoreactive product in each lane was determined using a ChemiDoc Imaging System (Bio–Rad Laboratories, USA). Values were calculated as relative absorbance units (RQ) per mg of protein and expressed as a percentage of the control.

HCT116 cells [1] = test: MTT viability assay, HCT116 cells; settings: Homo sapiens, HCT-116, range 0.5–100 µM, read-out: IC50, cytotoxicity
Procedure: (§2) The DLD-1 and HCT116 colorectal carcinoma cell lines were purchased from ECACC. The HaCaT cell line of spontaneously immortalized keratinocytes was purchased from Cell Lines Service (Germany). The cells were cultured in Dulbecco’s Modified Eagle’s Medium (DMEM, Sigma-Aldrich, USA) with the addition of 10% FBS (EURx, Poland) and 1% antibiotic solution (penicillin and streptomycin) (Sigma-Aldrich, USA) at 37 °C in an atmosphere with 95% humidity and 5% CO2.
(§3) The effect of the tested compounds on the viability of DLD-1, HCT116 and HaCaT cells was assessed by the MTT assay according to the standard protocol.

STAT3 [2] = test: qRT-PCR, STAT3 mRNA; settings: DLD-1 cells; 2, 5 at 5 μM, 4 at 1 μM
Procedure: (§4) Total RNA from cells was isolated with the GeneMatrix Universal DNA/RNA/Protein Purification Kit (EurX, Poland). For the qRT-PCR analyses, the Maxima SYBR Green I/ROX qPCR Master Mix (2×) (Thermo Fisher Scientific, USA) and the thermal cycler LightCycler (Roche, Germany) were used. The protocol started with 5 min of enzyme activation at 95 °C, followed by 40–50 cycles at 95 °C for 15 s, 56 °C for 20 s, 72 °C for 40 s, and final elongation at 72 °C for 5 min. Melting curve analysis was used for amplicon verification. The expression levels of TATA-box-binding protein (TBP) and porphobilinogen deaminase (PBGD) were used to normalize the data. The Pfaffl comparative method was used to calculate fold change. Primers were designed using Beacon Designer software (the sequences of primers used to analyze genes are listed in Table 2 of the supplementary materials).

GSTP = GSTP expression (qRT-PCR mRNA, Western blot protein); settings: DLD-1 cells; 5 at 5 μM
Procedure: as §1, with “control. […]” for “control.”

[3] = MTT viability assay, normal HaCaT cells; settings: HaCaT cells (spontaneously immortalized keratinocytes), normal human HaCaT cells, read-out: IC50, cytotoxicity
Procedure: as §2, §3

Bcl-xl = Bcl-xl expression (qRT-PCR mRNA, Western blot protein); settings: HCT116 cells, 5 at 5 μM; for Bcl-xl transcription: 4 at 1 μM
Procedure: as §1, §4

Nrf2 = test: Transcription factor ELISA, Nrf2 binding to DNA
Procedure: (§5) To estimate NF-ΚB (p50 and p65 subunits) STAT3 and Nrf2 activation, enzymatic immunoassays with the Transcription Factor ELISA Kit (TransAM™NF-κB, TransAM™STAT3/TransAM™Nrf2, Active Motif, Carlsbad CA, USA) were used following the manufacturer’s protocol. Briefly, proper consensus-site double-strand oligonucleotides (NF-κB—5′-GGGACTTTCC-3′; STAT3-5’—TTCCCGGAA-3’; Nrf2-5ʹ—[…]-3ʹ) were immobilized on an ELISA plate and incubated for one hour with the nuclear extracts. The activated subunits bound to DNA were recognized with a specific primary antibody and detected with an HRP-conjugated secondary antibody. The number of subunits was determined by spectrophotometry at λ = 450 nm. The number of p50, and p65 subunits, STAT3, as well as the amount of Nrf2 contained in the DNA-binding complex, corresponded to the activated NF-κB, STAT3, or Nrf2 transcription factors.

EGFR = test: Western blot, EGFR protein in cytosolic fraction; settings: 4 at 1 μM
Procedure: as §1

DLD-1 cells [4] = test: Apoptosis, Annexin V / 7-AAD flow cytometry, DLD-1; settings: 48 h; for induction of apoptosis: mainly early and total apoptotic populations enriched
Procedure: (§6) Apoptosis was assessed by the detection of phosphatidylserine externalization based on Annexin V staining combined with fluorescent DNA intercalator 7-Aminoactinomycin D (7-AAD) what allowed for the discrimination between early and late apoptotic cells. The analysis was performed by flow cytometry using the Muse Annexin V & Dead Cell Kit (Luminex, USA) and the Muse Cell Analyzer (Merck, Germany), according to the manufacturer’s protocol. Cells were seeded (2 × 10^5 cells per well) in six-well plates and on the following day the analyzed compounds were added. Topotecan (Sigma-Aldrich, USA) was used as a positive control of apoptosis induction. After 48 h cells were collected by trypsinization, stained and after 20 min incubation at room temperature in the dark analyzed by flow cytometry. Three independent experiments were performed. Data were analyzed by Muse 1.5 Analysis Software (Merck, Germany).

STAT3 [5] = test: Transcription factor ELISA, STAT3 binding to DNA; settings: 2, 5 at 5 μM, 4 at 1 μM; for binding of STAT3 to DNA: HCT116 cells; for decrease in the binding of STAT3 to DNA: nuclear fraction of DLD-1 cells
Procedure: as §5

HCT116 cells [6] = test: Apoptosis, Annexin V / 7-AAD flow cytometry, HCT116; settings: 48 h; for induction of apoptosis: increase of early, late and total apoptosis
Procedure: as §6

DLD-1 cells [7] = test: MTT viability assay, DLD-1 cells; settings: Homo sapiens, range 0.5–100 µM, read-out: IC50, cytotoxicity
Procedure: as §2, §3

[8] = HCT116 cells, 4 at 1 μM, 2, 5, 6, 7 at 5 μM
[9] = doubled concentration: 4 at 2 μM, 5 at 10 μM

Compound | phosphorylation of p-Akt (Ser 473) (p-Akt; DLD-1 cells) | phosphorylation of p-Akt (Ser 473) (p-Akt; HCT116 cells) | IC50 (HCT116 cells [1]) | STAT3 gene expression (mRNA) (STAT3 [2]) | GSTP expression and protein levels (GSTP) | IC50 [3] | Bcl-xl transcription (Bcl-xl) | Bcl-xl protein level (Bcl-xl) | Nrf2 binding to a specific nucleotide sequence (ELISA) (Nrf2; DLD-1 cells, 1 at 1 μM, 3, 5, 7, 8 at 5 μM) | Nrf2 binding to a specific nucleotide sequence (ELISA) (Nrf2; [8]) | level of EGFR (EGFR; DLD-1 cells, 2, 5 at 5 μM) | total apoptotic cells compared with BAY 11-7082 (5 µM) (DLD-1 cells [4]; 5 in higher concentration) | induction of apoptosis (DLD-1 cells [4]) | binding of STAT3 to DNA (STAT3 [5]) | decrease in the binding of STAT3 to DNA (STAT3 [5]) | late and total apoptosis compared with BAY 11-7082 (5 µM) (HCT116 cells [6]; [9]) | induction of apoptosis (HCT116 cells [6]) | late and total apoptosis compared with BAY 11-7082 (5 µM) (HCT116 cells [6]; standard concentration: 5 at 5 μM) | IC50 (DLD-1 cells [7]) | level of EGFR (EGFR; HCT116 cells)
COc1cc(/C=C/C(=O)c2cc(Br)c(SC)c(OC)c2)ccc1SC [chalcone 5] | significantly reduced phosphorylation of p-Akt | significantly reduced phosphorylation of p-Akt | 13 µM | decreased | significantly increased GSTP expression and protein levels | 14 µM | decreased Bcl-xl transcription | correlated with Bcl-xl protein level | statistically significant increase | statistically significant increase | significantly decreased the level of EGFR | comparable effect | able to induce apoptosis | decreased the binding of STAT3 to DNA | 20% | higher percentage of late and total apoptosis than BAY 11-7082 | able to induce apoptosis | higher percentage of late and total apoptosis than BAY 11-7082 | 11 µM | –
COc1cc(C(=O)/C=C/c2cccc(SC)c2)cc(Br)c1OC [chalcone 4] | significantly reduced phosphorylation of p-Akt | significantly reduced phosphorylation of p-Akt | 20 µM | decreased | – | 3 µM | decreased Bcl-xl transcription | – | – | statistically significant increase | significantly decreased the level of EGFR | – | able to induce apoptosis | decreased the binding of STAT3 to DNA | 30% | higher percentage of late and total apoptosis than BAY 11-7082 | able to induce apoptosis | – | 2 µM | significantly decreased the level of EGFR
